Measurements as given in ChEMBL document CHEMBL1201862, “PubChem BioAssay data set” (2004).
The source made the active and inactive calls.

Key:
HEK293 [1] = experiment: optical interference in Abeta FP readout, dose response, artefact control for IDE activator project, biochemical, fluorescence polarization (AID 588442); type: functional, cell-based; conditions: Homo sapiens
Insulin-degrading enzyme [2] = molecular target: T1, Insulin-degrading enzyme (Homo sapiens, UniProt P14735); experiment: activators of recombinant IDE enzyme, dose response, counter-screen for IDE activator project, biochemical, fluorescence polarization (AID 588681)
T1 sequence (P14735 whole entry): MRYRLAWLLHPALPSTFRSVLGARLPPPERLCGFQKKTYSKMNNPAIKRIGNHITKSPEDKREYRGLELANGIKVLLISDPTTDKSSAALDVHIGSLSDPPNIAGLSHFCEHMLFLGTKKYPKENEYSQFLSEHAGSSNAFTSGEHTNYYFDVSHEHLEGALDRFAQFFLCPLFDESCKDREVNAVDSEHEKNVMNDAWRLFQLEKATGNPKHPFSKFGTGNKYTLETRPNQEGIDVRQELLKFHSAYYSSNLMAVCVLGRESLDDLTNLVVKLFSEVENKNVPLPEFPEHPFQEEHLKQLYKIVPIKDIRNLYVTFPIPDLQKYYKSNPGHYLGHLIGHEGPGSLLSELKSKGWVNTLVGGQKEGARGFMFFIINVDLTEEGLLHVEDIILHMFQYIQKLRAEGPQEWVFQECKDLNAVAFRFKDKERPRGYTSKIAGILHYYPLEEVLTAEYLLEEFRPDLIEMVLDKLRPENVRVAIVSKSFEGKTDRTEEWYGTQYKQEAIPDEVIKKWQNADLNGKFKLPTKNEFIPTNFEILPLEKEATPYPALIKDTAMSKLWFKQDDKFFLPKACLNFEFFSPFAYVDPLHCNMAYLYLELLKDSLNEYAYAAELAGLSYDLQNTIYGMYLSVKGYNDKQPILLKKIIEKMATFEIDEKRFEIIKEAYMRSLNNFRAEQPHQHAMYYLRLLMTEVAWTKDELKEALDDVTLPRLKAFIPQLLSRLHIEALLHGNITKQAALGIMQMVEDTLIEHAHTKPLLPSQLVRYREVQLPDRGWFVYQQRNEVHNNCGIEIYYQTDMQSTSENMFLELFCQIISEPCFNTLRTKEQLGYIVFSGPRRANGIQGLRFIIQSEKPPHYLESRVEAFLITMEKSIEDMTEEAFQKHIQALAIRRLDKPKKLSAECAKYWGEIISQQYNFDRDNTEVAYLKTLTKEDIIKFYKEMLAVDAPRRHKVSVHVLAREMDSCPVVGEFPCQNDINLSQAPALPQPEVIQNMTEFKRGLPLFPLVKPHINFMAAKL

HEK293 [3] = experiment: HEK cell cytotoxicity by LDH release, dose response, cytotoxicity control for IDE activator project, fluorescence, HEK cells (AID 588440); type: functional, cell-based; conditions: Homo sapiens;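 also: cytotoxicity by LDH release measuring loss of membrane integrity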
Insulin-degrading enzyme [4] = molecular target: T1, Insulin-degrading enzyme; experiment: activators of endogenous IDE in HEK cells, dose response, cell-based, fluorescence polarization (AID 588439); type: functional
Phospholipase D2 = Phospholipase D2 (Homo sapiens, UniProt O14939); experiment: PLD2 inhibitor potency in cells, dose response (AID 602147); type: functional;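 also: cellular assay in HEK293 cells overexpressing GFP-tagged PLD2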
Sequence of Phospholipase D2 (O14939 whole entry): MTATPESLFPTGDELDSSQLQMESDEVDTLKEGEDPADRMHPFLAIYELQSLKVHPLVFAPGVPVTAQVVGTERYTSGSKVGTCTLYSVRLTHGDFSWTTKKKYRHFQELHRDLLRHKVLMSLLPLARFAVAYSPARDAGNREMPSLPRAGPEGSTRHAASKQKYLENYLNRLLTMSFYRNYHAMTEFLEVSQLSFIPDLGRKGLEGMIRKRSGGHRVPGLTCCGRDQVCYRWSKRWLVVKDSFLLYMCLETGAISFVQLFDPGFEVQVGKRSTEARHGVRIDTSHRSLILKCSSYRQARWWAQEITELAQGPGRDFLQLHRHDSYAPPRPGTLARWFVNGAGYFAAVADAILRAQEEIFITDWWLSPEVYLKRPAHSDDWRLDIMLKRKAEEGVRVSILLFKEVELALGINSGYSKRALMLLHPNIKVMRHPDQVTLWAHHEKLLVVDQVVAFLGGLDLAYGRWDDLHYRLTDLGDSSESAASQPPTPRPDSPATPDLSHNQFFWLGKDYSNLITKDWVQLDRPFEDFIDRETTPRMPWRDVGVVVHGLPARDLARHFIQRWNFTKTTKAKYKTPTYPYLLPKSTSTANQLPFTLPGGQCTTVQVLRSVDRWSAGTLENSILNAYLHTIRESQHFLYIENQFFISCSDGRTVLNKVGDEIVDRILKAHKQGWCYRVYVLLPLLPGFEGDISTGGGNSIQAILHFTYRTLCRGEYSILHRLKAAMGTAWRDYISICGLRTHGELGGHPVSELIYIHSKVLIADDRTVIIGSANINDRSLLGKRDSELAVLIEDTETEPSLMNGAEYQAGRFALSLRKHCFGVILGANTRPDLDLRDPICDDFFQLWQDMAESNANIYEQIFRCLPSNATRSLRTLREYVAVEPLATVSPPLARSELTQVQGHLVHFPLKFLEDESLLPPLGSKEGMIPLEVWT

Phospholipase D1 = molecular target: T2, Phospholipase D1 (Homo sapiens, UniProt Q13393); experiment: PLD1 inhibitor potency in cells, dose response (AID 602151); type: functional;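 also: cellular PLD1 assay in Calu-1 cells stimulated with PMA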
T2 sequence (Q13393 whole entry): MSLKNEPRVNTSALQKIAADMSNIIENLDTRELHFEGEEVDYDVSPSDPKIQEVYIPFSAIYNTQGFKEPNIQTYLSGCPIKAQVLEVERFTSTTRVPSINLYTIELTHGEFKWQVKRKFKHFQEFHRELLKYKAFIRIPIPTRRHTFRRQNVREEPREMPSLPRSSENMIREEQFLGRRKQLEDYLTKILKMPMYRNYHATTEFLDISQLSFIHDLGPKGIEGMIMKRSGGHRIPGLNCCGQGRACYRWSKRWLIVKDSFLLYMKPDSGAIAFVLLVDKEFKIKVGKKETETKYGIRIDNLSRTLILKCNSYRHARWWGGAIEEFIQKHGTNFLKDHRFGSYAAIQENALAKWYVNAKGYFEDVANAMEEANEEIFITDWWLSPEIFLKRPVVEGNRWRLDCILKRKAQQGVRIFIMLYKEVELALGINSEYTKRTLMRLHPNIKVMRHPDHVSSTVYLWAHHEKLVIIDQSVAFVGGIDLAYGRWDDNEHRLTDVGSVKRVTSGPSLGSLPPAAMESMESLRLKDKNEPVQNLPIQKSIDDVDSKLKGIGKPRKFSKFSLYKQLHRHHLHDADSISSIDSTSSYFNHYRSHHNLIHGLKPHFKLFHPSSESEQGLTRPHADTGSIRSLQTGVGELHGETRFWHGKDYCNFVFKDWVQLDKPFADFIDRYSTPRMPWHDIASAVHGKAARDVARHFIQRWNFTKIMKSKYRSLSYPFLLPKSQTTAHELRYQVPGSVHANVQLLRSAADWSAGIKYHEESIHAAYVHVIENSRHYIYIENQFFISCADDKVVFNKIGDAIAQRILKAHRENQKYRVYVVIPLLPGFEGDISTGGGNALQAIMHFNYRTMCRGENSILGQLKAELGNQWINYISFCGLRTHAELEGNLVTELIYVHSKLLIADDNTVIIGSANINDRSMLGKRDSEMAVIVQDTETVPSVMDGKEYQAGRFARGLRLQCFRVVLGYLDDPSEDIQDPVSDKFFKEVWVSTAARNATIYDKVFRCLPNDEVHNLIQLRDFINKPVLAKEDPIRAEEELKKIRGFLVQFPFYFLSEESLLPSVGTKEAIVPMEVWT

Q: With `CN(C)CCCN(C(=O)CCSc1ccccc1)c1nc2cc3c(cc2s1)OCO3` as the molecule, how does the EC50 (HEK293 [1]) read?
A: Its EC50 is > 54.7 µM (inactive).

Q: What about the EC50 (Insulin-degrading enzyme [2]) of the same molecule?
A: Its EC50 is > 54.7 µM (inactive).

Q: What about the IC50 (HEK293 [3]) of the same molecule?
A: Its IC50 is 33.9 µM (inactive).

Q: And the EC50 (Insulin-degrading enzyme [4])?
A: The EC50 was > 54.7 µM (inactive).

Q: How did the IC50 (Phospholipase D2) turn out when `C[C@@H](CN1CCC2(CC1)C(=O)NCN2c1ccc(F)c(F)c1)NC(=O)c1ccc(Cl)cc1` was run?
A: The IC50 was 0.125 µM (active).

Q: What about the IC50 (Phospholipase D1) of the same molecule?
A: Its IC50 is 0.031 µM (active).

Q: For `O=C(NCCN1CCC(n2nnc3ccccc32)CC1)c1ccc2ccccc2c1`, which IC50 (Phospholipase D2) is on record?
A: The IC50 was 1.75 µM (active).

Q: What about the IC50 (Phospholipase D1) of the same molecule?
A: The IC50 was 2.7 µM (active).
